Test results as given in US20130288917A1, “Rapid High Resolution, High Throughput RNA Structure, RNA-Macromolecular Interaction, and RNA-Small Molecule Interaction Mapping” (The Board of Trustees of the Leland Stanford Junior …, priority 2010, published 2013).
Entries after “also recorded” stand apart in the source; their conditions may differ.

Test system: HCV IRES
Assay: sf-SHAPE structure mapping of the HCV IRES in the presence of miRNA
Assay type: binding, Hepatitis C virus
Text: First, the intricacies (and cost) introduced by using multiple fluorophores have been eliminated by using a single fluorophore-labelled primer and multiple capillaries, rather than using multiple fluorophores sets in each capillary. We have therefore named this technique, single fluorophore SHAPE (sf-SHAPE). sf-SHAPE is a fragment analysis method that uses an internal standard to allow data from one capillary to be directly compared to data from another, with high precision. Commercial software (Peak Scanner, ABI), as well as custom-designed software (CAFA)11, which assign fragment lengths to peaks using an internal standard and integrates each peak area, are freely available.
We have designed a program entitled Fast Analysis of SHAPE Traces (FAST), which then takes the output from Peak Scanner and automatically (a) corrects for signal decay; (b) corrects for differences in signal strength among samples; and (c) assigns the determined SHAPE reactivity to the appropriate nucleotide, using a ddNTP sequencing ladder and the local southern method. […] FAST is able to generate SHAPE reactivity data from electrophoretic traces in as little as 5-10 minutes, as opposed to hours, with high experimental reproducibility (R2=0.93).
We next explored the effect of miR-122 on the HCV IRES structure. In this experiment, the HCV IRES structure was determined in the presence of miR-122 as well as a control miRNA, miR-124. The IRES structure was also determined in the presence of a mutant miR-122, in which the seed region of miR-122 was retained (NT 1-9), while the remainder of the miRNA was replaced by the end of miR-124 [miR-122(seed) with miR-124(tail)].
SHAPE performed as previously described by Mortimer & Weeks (2009) Nature protocols 4, 1413-1421; and Wilkinson et al. (2006) Nature protocols 1, 1610-1616 except: RNA purification after acylation and removal of miRNA before RT by RNA C&C (Zymoresearch); DNA purification by size exclusion (Sephadex G-50 resin); 1 pmol RNA used in sequences reactions; fragment analysis protocol (GeneScan/ROX 500 standard/50 cm capillary/POP6/voltage 15 kV/T=60° C./injection time=15 s (3100 ABI); 6-FAM labelled primers), and PeakScanner/FAST analysis. IRES folding29, (100 mM NaCl; 2.5 mM MgCl), alamar blue assay and qRT-PCR were performed as previously described30. Luciferase assay performed as described30, except co-transfection (HCV/LNA) was by lipofectamine 2000 (3.5×10^5 huh 7.5 cells/well), with translation measured at 4 hours. LNAs purchased from Exiqon (Scramble-miR/hsa-miR-122 kd2). Sequence logo: RNA graphics were drawn using RNA Viz. P-values (two-tailed unpaired t-test) calculated by InStat 3 (Graphpad).

## miR-122: liver-expressed miRNA, UGGAGUGUGA CAAUGGUGUUUG (UGGAGUGUGACAAUGGUGUUUG)
HCV IRES with versus without miRNA
  effect on IRES structure (SHAPE reactivity): induced a number of changes
Outside the complementary seed region
  binding at NTs 32-37: results in binding
Seed site
  binding to the S2 target of the IRES (NT 38-42): bound
Upon addition of miRNA, HCV nucleotides 32-42
  flexibility of the S2 target site: significant reduction in flexibility
Upon addition of miRNA, nucleotides 335, 336, 351
  flexibility / reactivity of domain IV (AUG start site): becomes more flexible; also recorded: significantly increased flexibility
